{
  "source": "paper PMC7316895",
  "about": "“Identification of a Compound That Inhibits the Growth of Gram-Negative Bacteria by Blocking BamA–BamD Interaction” (Frontiers in Microbiology, 2020)",
  "target": "T1, BamA (Escherichia coli, UniProt P0A940)",
  "T1 construct": "biotinylated for BLI",
  "assay": "biolayer interferometry ([…] global fit); supported by GST pull-down showing dose-dependent loss of BamA–BamD interaction",
  "assay_type": "binding",
  "data": [
    {"smiles": "COC(=O)c1c(NC(=O)c2ccc([N+](=O)[O-])o2)sc2c1CCN(C(C)C)C2", "note": "[IMB-H4]", "values": [
      {"measurement": "Kd", "result": 3.90, "unit": "E^–6"}
    ]}
  ]
}
